Where two headings read alike, the source gives them in different places.
How the values were obtained:
[1] = system: breast cancer line T47D cells;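 also: luminescence read-out after 72 h at 37 °C under 5% CO2, with medium-only wells as blanks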
[2] = system: gastric cancer line MKN45 cells; assay: CTG (CellTiter-Glo) cell viability assay, 6×6 combo matrix, 72 h, MKN45;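 also: MKN45 cell viability read as CellTiter-Glo luminescence after 72 h culture at 37 °C under 5% CO2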
Procedure: (§1) To measure the cell inhibition effect of compounds and synergy effect of test articles on ten (10) cell lines using standard CTG assay.
(§2) 7) Using complete cell medium, adjust the volume of the suspension to achieve a cell concentration.
(§3) A549, T47D, SK-OV-3, MKN45, SK-Hep-1, HT-29, Capan-1, 786-O and LNCaP cell line, for compounds and vehicle groups, the seeding density of cell lines is 3000 cells/80 µL per well. For blank groups, add 100 µL medium. For PBS groups, add 100 µL PBS.
(§4) 8) Incubate the U87MG, A549, T47D, SK-OV-3, MKN45, SK-Hep-1, HT-29, Capan-1, 786-O and LNCaP cells overnight at 37° C./5% CO2.
(§5) Solid compound of cis-platinum was solubilized in PBS to a stock solution of 3.333 mM.
(§6) Final volume is 100 µL per well at this point.
(§7) 5) Incubate the plates at 37° C./5% CO2 for 72 hours.
(§8) 1) Incubate the plates at room temperature and away from light for 30 minutes.
(§9) 3) Add 100 µL /well of CellTiter-Glo® Reagent in each well. Avoid light.
(§10) 4) Mix contents for 2 minutes on an orbital shaker.
(§11) 5) Incubate plate at room temperature for 10 minutes to stabilize the luminescent signal.
6) Read plates in Envision.

[3] = system: ovarian cancer line SK-OV3 cells; assay: CTG (CellTiter-Glo) cell viability assay, 6×6 combo matrix, 72 h, SK-OV-3; details: SK-OV-3;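 also: luminescent signal read after CellTiter-Glo addition, cells exposed to compounds for 72 h at 37 °C under 5% CO2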
Procedure: as §1, §2, §3, §4, §5, §6, §7, §8, §9, §10, §11
6) Read plates in Envision.

[4] = system: kidney cancer line 786-O cells; assay: CTG (CellTiter-Glo) cell viability assay, 6×6 combo matrix, 72 h, 786-O; details: for Relatively Cell inhibition of vehicle control(%): 786-O;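 as to all read-outs here: luminescence read-out after adding CellTiter-Glo reagent, with cells incubated at 37 °C under 5% CO2 during compound exposure, part of a ten cell line synergy study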
[5] = system: lung adenocarcinoma line A549 cells; assay: CTG (CellTiter-Glo) cell viability assay, 6×6 combo matrix, 72 h, A549; details: A549;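 also: luminescent ATP readout with CellTiter-Glo after compound exposure, used to assess growth inhibition and combination synergy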
Procedure: as §1, §2, §3, §4, §5, §6, §7, §8, §9, §10, §11
6) Read plates in Envision.

[6] = system: Liver cancer line SK-HEP-1 cells; assay: CTG (CellTiter-Glo) cell viability assay, 6×6 combo matrix, 72 h, SK-Hep-1; details: Homo sapiens;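 also: luminescent signal read after 72 h compound exposure at 37 °C under 5% CO2, with medium-only wells serving as blank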
[7] = system: prostate adenocarcinoma line LNCap cells; assay: CTG (CellTiter-Glo) cell viability assay, 6×6 combo matrix, 72 h, LNCaP; details: Homo sapiens, LNCaP;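 also: luminescence signal read after adding CellTiter-Glo reagent, with cells exposed to compounds for 72 h at 37 °C under 5% CO2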
Procedure: as §1, §2
(§12) b. A549, T47D, SK-OV-3, MKN45, SK-Hep-1, HT-29, Capan-1, 786-O and LNCaP cell line, for compounds and vehicle groups, the seeding density of cell lines is 3000 cells/80 µL per well. For blank groups, add 100 µL medium. For PBS groups, add 100 µL PBS.
as §4, §5, §6, §7, §8, §9, §10, §11
6) Read plates in Envision.

[8] = system: glioblastoma line U87MG cells; assay: CTG (CellTiter-Glo) cell viability assay, 6×6 combo matrix, 72 h, U87MG; details: Homo sapiens, U-87 MG;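 also: U87MG cells seeded at 2000 per well, exposed 72 h, viability read by CellTiter-Glo luminescence, inhibition expressed relative to vehicle-treated wells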
Procedure: as §1, §2
U87MG cell lines, for compounds and vehicle groups, the seeding density of cell lines is 2000 cells/80 µL per well. For blank groups, add 100 µL medium. For PBS groups, add 100 µL PBS.
as §4, §5, §6, §7, §8, §9, §10, §11
6) Read plates in Envision.

[9] = system: pancreatic cancer line Capan-1 cells; assay: CTG (CellTiter-Glo) cell viability assay, 6×6 combo matrix, 72 h, Capan-1; assay type: cell-based; details: for Relatively Cell inhibition of vehicle control(%): Capan-1
How it was run: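 Capan-1 cells were seeded at 3000 cells per well and incubated overnight at 37 °C/5% CO2. They were then treated with compounds in a 6×6 combination matrix for 72 h at 37 °C/5% CO2. Viability was read by CellTiter-Glo luminescence to assess inhibition and synergy.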

[10] = system: ovarian cancer line SK-OV3 cells;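 also: luminescent signal read after CellTiter-Glo addition, cells exposed to compounds for 72 h at 37 °C under 5% CO2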
Procedure: as §1, §2, §3, §4, §5, §6, §7, §8, §9, §10, §11
6) Read plates in Envision.

[11] = system: breast cancer line T47D cells; assay: CTG (CellTiter-Glo) cell viability assay, 6×6 combo matrix, 72 h, T47D; details: Homo sapiens;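 also: luminescence read-out after 72 h at 37 °C under 5% CO2, with medium-only wells as blanks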
[12] = system: kidney cancer line 786-O cells;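 also: luminescence read-out after adding CellTiter-Glo reagent, with cells incubated at 37 °C under 5% CO2 during compound exposure, part of a ten cell line synergy study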
[13] = system: prostate adenocarcinoma line LNCap cells;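 also: luminescence signal read after adding CellTiter-Glo reagent, with cells exposed to compounds for 72 h at 37 °C under 5% CO2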
Procedure: as §1, §2, §12, §4, §5, §6, §7, §8, §9, §10, §11
6) Read plates in Envision.

[14] = Tax 8 nM only (myricetin matrix)
[15] = Tax 40 nM only (myricetin matrix)
[16] = Tax 200 nM only (myricetin matrix)
[17] = Tax 1000 nM only (myricetin matrix)
[18] = Homo sapiens, 786-0, read-out: Relatively Cell inhibition of vehicle control

## CC(=O)O[C@H]1C(=O)[C@@]2(C)[C@H]([C@H](OC(=O)c3ccccc3)[C@]3(O)C[C@H](OC(=O)[C@H](O)[C@@H](NC(=O)c4ccccc4)c4ccccc4)C(C)=C1C3(C)C)[C@]1(OC(C)=O)CO[C@@H]1C[C@@H]2O [taxol, paclitaxel]
[1]
  inhibition: 17%
[2]; Tax 8 nM only (LB-1 0)
  Relatively Cell inhibition of vehicle control(%): 52.04%
[2]; Tax 8 nM only (Myr 0)
  Relatively Cell inhibition of vehicle control(%): 50.47%
[2]; Tax 40 nM only (LB-1 0)
  Relatively Cell inhibition of vehicle control(%): 48.11%
[2]; Tax 40 nM only (Myr 0)
  Relatively Cell inhibition of vehicle control(%): 56.30%
[2]; Tax 200 nM only (LB-1 0)
  Relatively Cell inhibition of vehicle control(%): 64.94%
[2]; Tax 200 nM only (Myr 0)
  Relatively Cell inhibition of vehicle control(%): 68.16%
[2]; Tax 1000 nM only (LB-1 0)
  Relatively Cell inhibition of vehicle control(%): 70.65%
[2]; Tax 1000 nM only (Myr 0)
  Relatively Cell inhibition of vehicle control(%): 69.93%
[3]; Tax 8 nM only (LB-1 matrix)
  Relatively Cell inhibition of vehicle control(%): 41.59%
[3]; [14]
  Relatively Cell inhibition of vehicle control(%): 39.88%
[3]; Tax 40 nM only (LB-1 matrix)
  Relatively Cell inhibition of vehicle control(%): 54.31%
[3]; [15]
  Relatively Cell inhibition of vehicle control(%): 52.55%
[3]; Tax 200 nM only (LB-1 matrix)
  Relatively Cell inhibition of vehicle control(%): 71.38%
[3]; [16]
  Relatively Cell inhibition of vehicle control(%): 68.68%
[3]; Tax 1000 nM only (LB-1 matrix)
  Relatively Cell inhibition of vehicle control(%): 76.39%
[3]; [17]
  Relatively Cell inhibition of vehicle control(%): 73.38%
[4]; [18]
  inhibition at 0.008 µM: 12.2%
  inhibition at 0.04 µM: 42.6%
  inhibition at 0.2 µM: 70%
  inhibition at 1 µM: 74.1%
[4]; Tax 8 nM only (LB-1 0)
  Relatively Cell inhibition of vehicle control(%): 12.57%
[4]; Tax 40 nM only (LB-1 0)
  Relatively Cell inhibition of vehicle control(%): 43.18%
[4]; Tax 200 nM only (LB-1 0)
  Relatively Cell inhibition of vehicle control(%): 69.53%
[4]; Tax 1000 nM only (LB-1 0)
  Relatively Cell inhibition of vehicle control(%): 73.05%
[5]; Tax 8 nM only (LB-1 matrix)
  Relatively Cell inhibition of vehicle control(%): 55.11%
[5]; [14]
  Relatively Cell inhibition of vehicle control(%): 53.76%
[5]; Tax 40 nM only (LB-1 matrix)
  Relatively Cell inhibition of vehicle control(%): 68.79%
[5]; [15]
  Relatively Cell inhibition of vehicle control(%): 68.03%
[5]; Tax 200 nM only (LB-1 matrix)
  Relatively Cell inhibition of vehicle control(%): 77.44%
[5]; [16]
  Relatively Cell inhibition of vehicle control(%): 75.24%
[5]; Tax 1000 nM only (LB-1 matrix)
  Relatively Cell inhibition of vehicle control(%): 76.64%
[5]; [17]
  Relatively Cell inhibition of vehicle control(%): 77.27%
[6]; SK-HEP1, read-out: Relatively Cell inhibition of vehicle control, taxol 8 nM only (LB-1 table)
  inhibition at 0.008 µM: 30.6%
[6]; SK-HEP1, read-out: Relatively Cell inhibition of vehicle control, taxol 8 nM only (myricetin table)
  inhibition at 0.008 µM: 36%
[6]; SK-HEP1, read-out: Relatively Cell inhibition of vehicle control, taxol 40 nM only (LB-1 table)
  inhibition at 0.04 µM: 59.5%
[6]; SK-HEP1, read-out: Relatively Cell inhibition of vehicle control, taxol 40 nM only (myricetin table)
  inhibition at 0.04 µM: 62.4%
[6]; SK-HEP1, read-out: Relatively Cell inhibition of vehicle control, taxol 200 nM only (LB-1 table)
  inhibition at 0.2 µM: 68.8%
[6]; SK-HEP1, read-out: Relatively Cell inhibition of vehicle control, taxol 200 nM only (myricetin table)
  inhibition at 0.2 µM: 65.2%
[6]; SK-HEP1, read-out: Relatively Cell inhibition of vehicle control, taxol 1000 nM only (LB-1 table)
  inhibition at 1 µM: 78%
[6]; SK-HEP1, read-out: Relatively Cell inhibition of vehicle control, taxol 1000 nM only (myricetin table)
  inhibition at 1 µM: 78.8%
[7]; read-out: Relatively Cell inhibition of vehicle control(%), taxol 8 nM only (LB-1 plate)
  inhibition at 0.008 µM: 54%
[7]; read-out: Relatively Cell inhibition of vehicle control(%), taxol 8 nM only (myricetin plate)
  inhibition at 0.008 µM: 62.6%
[7]; read-out: Relatively Cell inhibition of vehicle control(%), taxol 40 nM only (LB-1 plate)
  inhibition at 0.04 µM: 59.2%
[7]; read-out: Relatively Cell inhibition of vehicle control(%), taxol 40 nM only (myricetin plate)
  inhibition at 0.04 µM: 65.5%
[7]; read-out: Relatively Cell inhibition of vehicle control(%), taxol 200 nM only (LB-1 plate)
  inhibition at 0.2 µM: 56.4%
[7]; read-out: Relatively Cell inhibition of vehicle control(%), taxol 200 nM only (myricetin plate)
  inhibition at 0.2 µM: 62.2%
[7]; read-out: Relatively Cell inhibition of vehicle control(%), taxol 1000 nM only (LB-1 plate)
  inhibition at 1 µM: 48.8%
[7]; read-out: Relatively Cell inhibition of vehicle control(%), taxol 1000 nM only (myricetin plate)
  inhibition at 1 µM: 55.6%
[8]; 72 h, read-out: Relatively Cell inhibition of vehicle control(%), U87MG, 8 nM taxol only (LB-1 0), 72 h
  inhibition at 0.008 µM: 42.7%
[8]; 72 h, read-out: Relatively Cell inhibition of vehicle control(%), U87MG, 40 nM taxol only (LB-1 0), 72 h
  inhibition at 0.04 µM: 53.9%
[8]; 72 h, read-out: Relatively Cell inhibition of vehicle control(%), U87MG, 200 nM taxol only (LB-1 0), 72 h
  inhibition at 0.2 µM: 67.8%
[8]; 72 h, read-out: Relatively Cell inhibition of vehicle control(%), U87MG, 1000 nM taxol only (LB-1 0), 72 h
  inhibition at 1 µM: 66.2%
[8]; read-out: Relatively Cell inhibition of vehicle control(%), taxol 8 nM only
  inhibition at 0.008 µM: 46.5%
[8]; read-out: Relatively Cell inhibition of vehicle control(%), taxol 40 nM only
  inhibition at 0.04 µM: 60.6%
[8]; read-out: Relatively Cell inhibition of vehicle control(%), taxol 200 nM only
  inhibition at 0.2 µM: 72.2%
[8]; read-out: Relatively Cell inhibition of vehicle control(%), taxol 1000 nM only
  inhibition at 1 µM: 69.8%
[9]; Homo sapiens, CAPAN-1, taxol 1.6 nM only, read-out: Relatively Cell inhibition of vehicle control
  inhibition at […]: 17.2%
[9]; Homo sapiens, CAPAN-1, taxol 8 nM only, read-out: Relatively Cell inhibition of vehicle control
  inhibition at 0.008 µM: 54.3%
[9]; Homo sapiens, CAPAN-1, taxol 40 nM only, read-out: Relatively Cell inhibition of vehicle control
  inhibition at 0.04 µM: 65.8%
[9]; Homo sapiens, CAPAN-1, taxol 200 nM only, read-out: Relatively Cell inhibition of vehicle control
  inhibition at 0.2 µM: 65.4%
[9]; Homo sapiens, CAPAN-1, taxol 1000 nM only, read-out: Relatively Cell inhibition of vehicle control
  inhibition at 1 µM: 67.2%
[9]; Tax 8 nM only
  Relatively Cell inhibition of vehicle control(%): 51.97%
[9]; Tax 40 nM only
  Relatively Cell inhibition of vehicle control(%): 62.89%
[9]; Tax 200 nM only
  Relatively Cell inhibition of vehicle control(%): 63.24%
[9]; Tax 1000 nM only
  Relatively Cell inhibition of vehicle control(%): 64.00%
[10]
  inhibition: 17.4%
[11]; read-out: Relatively Cell inhibition of vehicle control(%), T47D, 8 nM taxol only (LB-1 0)
  inhibition at 0.008 µM: 33.2%
[11]; read-out: Relatively Cell inhibition of vehicle control(%), T47D, 8 nM taxol only (myricetin 0)
  inhibition at 0.008 µM: 40.8%
[11]; read-out: Relatively Cell inhibition of vehicle control(%), T47D, 40 nM taxol only (LB-1 0)
  inhibition at 0.04 µM: 42.2%
[11]; read-out: Relatively Cell inhibition of vehicle control(%), T47D, 40 nM taxol only (myricetin 0)
  inhibition at 0.04 µM: 48.6%
[11]; read-out: Relatively Cell inhibition of vehicle control(%), T47D, 200 nM taxol only (LB-1 0)
  inhibition at 0.2 µM: 42%
[11]; read-out: Relatively Cell inhibition of vehicle control(%), T47D, 200 nM taxol only (myricetin 0)
  inhibition at 0.2 µM: 48.5%
[11]; read-out: Relatively Cell inhibition of vehicle control(%), T47D, 1000 nM taxol only (LB-1 0)
  inhibition at 1 µM: 38%
[11]; read-out: Relatively Cell inhibition of vehicle control(%), T47D, 1000 nM taxol only (myricetin 0)
  inhibition at 1 µM: 45.8%
[12]
  inhibition: 3.15%
[13]
  inhibition: 9.88%

Source: US20230165831A1, “METHOD AND COMPOSITION FOR RENDERING CANCER CELLS SUSCEPTIBLE TO TREATMENT BY TARGETED ONCOGENETIC DRIVERS” (IMPACT BIOLIFE SCIENCE, INC., priority 2021, published 2023)
